Measured values from publication PMC8766848, “The Structural Basis of Babesia orientalis Lactate Dehydrogenase” (Frontiers in Cellular and Infection Microbiology, 2022).

Biological target: T1, Babesia orientalis lactate dehydrogenase (BoLDH) (Babesia orientalis, UniProt A0A8X6EH37)
T1 construct: full-length ORF (330 residues), N-terminal His6 tag, recombinant rBoLDH
T1 sequence (A0A8X6EH37 1-330): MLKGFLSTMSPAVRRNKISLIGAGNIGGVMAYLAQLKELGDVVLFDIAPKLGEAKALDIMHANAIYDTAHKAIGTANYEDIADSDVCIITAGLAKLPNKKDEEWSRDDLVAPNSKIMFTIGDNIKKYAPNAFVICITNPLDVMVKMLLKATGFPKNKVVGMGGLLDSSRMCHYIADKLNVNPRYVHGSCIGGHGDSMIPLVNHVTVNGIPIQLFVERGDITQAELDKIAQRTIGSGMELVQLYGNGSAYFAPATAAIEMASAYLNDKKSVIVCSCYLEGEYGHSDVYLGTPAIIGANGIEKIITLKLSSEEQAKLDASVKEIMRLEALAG
Experiment: Michaelis-Menten inhibition kinetics, lactate to pyruvate, NADH absorbance at […] nm, […] gossypol
Type: biochemical

Cc1cc2c(C(C)C)c(O)c(O)c(C=O)c2c(O)c1-c1c(C)cc2c(C(C)C)c(O)c(O)c(C=O)c2c1O [gossypol]
Ki: 4.24 ± 0.25 µM
